Test results as given in ChEMBL document CHEMBL5375952, “Discovery of Novel 8-Hydroxyquinoline Derivatives with Potent In Vitro and In Vivo Antifungal Activity” (J Med Chem, 2023).
The source made the active and inactive calls. The rule behind the calls is not given here.

Legend:
Candida albicans [1] = assay: Synergistic antifungal activity against FLC-resistant Candida albicans 710554 assessed as MIC of FLC incubated for 48 hrs by broth microdilution method; format: functional
Candida albicans [2] = assay: Synergistic antifungal activity against FLC-resistant Candida albicans 538 assessed as MIC of FLC incubated for 48 hrs by broth microdilution method; format: functional
Candida albicans [3] = assay: Synergistic antifungal activity against FLC-resistant Candida albicans 305 assessed as fractional inhibitory concentration index incubated for 48 hrs in presence of FLC by broth microdilution method; format: functional
[4] = Oral bioavailability in Sprague-Dawley rat at 5 mg/kg by LC-MS/MS analysis; format: ADME, organism-based; conditions: in vivo
[5] = Volume of distribution at steady state in Sprague-Dawley rat at 2 mg/kg, iv by LC-MS/MS analysis; format: ADME, organism-based; conditions: in vivo, read-out: Vdss
Candida albicans [6] = assay: Synergistic antifungal activity against FLC-resistant Candida albicans 1221 assessed as fractional inhibitory concentration index incubated for 48 hrs in presence of FLC by broth microdilution method; format: functional
Candida albicans [7] = assay: Synergistic antifungal activity against FLC-resistant Candida albicans 540 assessed as fungal growth inhibition incubated for 48 hrs in presence of FLC by broth microdilution method; format: functional
Candida albicans [8] = assay: Synergistic antifungal activity against FLC-resistant Candida albicans 385 assessed as fungal growth inhibition incubated for 48 hrs in presence of FLC by broth microdilution method; format: functional
[9] = MRT (0 to t) in Sprague-Dawley rat at 2 mg/kg, iv by LC-MS/MS analysis; format: ADME, organism-based; conditions: in vivo
Candida albicans [10] = assay: Synergistic antifungal activity against FLC-resistant Candida albicans 710506 assessed as MIC of FLC incubated for 48 hrs by broth microdilution method; format: functional
Candida albicans [11] = assay: Synergistic antifungal activity against FLC-resistant Candida albicans 540 assessed as MIC of FLC incubated for 48 hrs by broth microdilution method; format: functional
Candida albicans [12] = assay: Synergistic antifungal activity against FLC-resistant Candida albicans 379 assessed as MIC of FLC incubated for 48 hrs by broth microdilution method; format: functional
Candida albicans [13] = assay: Synergistic antifungal activity against FLC-resistant Candida albicans 646 assessed as fractional inhibitory concentration index incubated for 48 hrs in presence of FLC by broth microdilution method; format: functional
Candida albicans [14] = assay: Synergistic inhibition of hypha formation in Candida albicans SC5314 at 4 to 16 ug/ml incubated for 3 hrs in presence of FLC by inverted phase contrast microscopy; format: functional, organism-based; conditions: dose 4-16 µg/ml
Candida albicans [15] = assay: Synergistic antifungal activity against FLC-resistant Candida albicans 5740 assessed as fractional inhibitory concentration index incubated for 48 hrs in presence of FLC by broth microdilution method; format: functional
Candida albicans [16] = assay: Synergistic antifungal activity against FLC-resistant Candida albicans 512644 assessed as MIC of FLC incubated for 48 hrs by broth microdilution method; format: functional
Candida albicans [17] = assay: Synergistic antifungal activity against FLC-resistant Candida albicans 12 assessed as MIC of FLC incubated for 48 hrs by broth microdilution method; format: functional
Candida albicans [18] = assay: Synergistic antifungal activity against FLC-resistant Candida albicans 710419 assessed as fractional inhibitory concentration index incubated for 48 hrs in presence of FLC by broth microdilution method; format: functional
Candida albicans [19] = assay: Synergistic antifungal activity against FLC-resistant Candida albicans 710554 assessed as fractional inhibitory concentration index incubated for 48 hrs in presence of FLC by broth microdilution method; format: functional
Candida albicans [20] = assay: Inhibition of hypha formation in Candida albicans SC5314 at 8 to 16 ug/ml incubated for 3 hrs by inverted phase contrast microscopy; format: functional, organism-based; conditions: dose 8-16 µg/ml
Candida albicans [21] = assay: Synergistic antifungal activity against FLC-resistant Candida albicans 5740 assessed as fungal growth inhibition incubated for 48 hrs in presence of FLC by broth microdilution method; format: functional
[22] = Half life in Sprague-Dawley rat at 2 mg/kg, iv by LC-MS/MS analysis; format: ADME, organism-based; conditions: in vivo
Candida albicans [23] = assay: Synergistic antifungal activity against FLC-resistant Candida albicans 100 assessed as MIC of FLC incubated for 48 hrs by broth microdilution method; format: functional
[24] = Half life in Sprague-Dawley rat at 5 mg/kg, po by LC-MS/MS analysis; format: ADME, organism-based; conditions: in vivo
Candida albicans [25] = assay: Synergistic antifungal activity against FLC-resistant Candida albicans 710452 assessed as MIC of FLC incubated for 48 hrs by broth microdilution method; format: functional
Candida albicans [26] = assay: Synergistic antifungal activity against FLC-resistant Candida albicans 1221 assessed as MIC of FLC incubated for 48 hrs by broth microdilution method; format: functional
Candida albicans [27] = assay: Synergistic antifungal activity against FLC-resistant Candida albicans 241 assessed as fungal growth inhibition incubated for 48 hrs in presence of FLC by broth microdilution method; format: functional
Candida albicans [28] = assay: Synergistic antifungal activity against FLC-resistant Candida albicans 305 assessed as MIC of FLC incubated for 48 hrs by broth microdilution method; format: functional
Candida albicans [29] = assay: Synergistic antifungal activity against FLC-resistant Candida albicans 385 assessed as fractional inhibitory concentration index incubated for 48 hrs in presence of FLC by broth microdilution method; format: functional
Candida albicans [30] = assay: Synergistic antifungal activity against FLC-resistant Candida albicans 249 assessed as fungal growth inhibition incubated for 48 hrs in presence of FLC by broth microdilution method; format: functional
Candida albicans [31] = assay: Synergistic antifungal activity against FLC-resistant Candida albicans 538 assessed as fractional inhibitory concentration index incubated for 48 hrs in presence of FLC by broth microdilution method; format: functional
Candida albicans [32] = assay: Synergistic antifungal activity against FLC-resistant Candida albicans 646 assessed as fungal growth inhibition incubated for 48 hrs in presence of FLC by broth microdilution method; format: functional
Candida albicans [33] = assay: Synergistic antifungal activity against FLC-resistant Candida albicans 395 assessed as MIC of FLC incubated for 48 hrs by broth microdilution method; format: functional
Candida albicans [34] = assay: Synergistic antifungal activity against FLC-resistant Candida albicans 11 assessed as fractional inhibitory concentration index incubated for 48 hrs in presence of FLC by broth microdilution method; format: functional
Candida albicans [35] = assay: Synergistic antifungal activity against FLC-resistant Candida albicans 710452 assessed as fractional inhibitory concentration index incubated for 48 hrs in presence of FLC by broth microdilution method; format: functional
Candida albicans [36] = assay: Synergistic antifungal activity against FLC-resistant Candida albicans 512681 assessed as MIC of FLC incubated for 48 hrs by broth microdilution method; format: functional
[37] = biological target: Voltage-gated inwardly rectifying potassium channel KCNH2 (Homo sapiens, UniProt Q12809); assay: Inhibition of hERG measured for 120 secs by electrophysiological method; format: toxicity; conditions: 2 min, time 120 sec
Voltage-gated inwardly rectifying potassium channel KCNH2, sequence (Q12809 whole entry): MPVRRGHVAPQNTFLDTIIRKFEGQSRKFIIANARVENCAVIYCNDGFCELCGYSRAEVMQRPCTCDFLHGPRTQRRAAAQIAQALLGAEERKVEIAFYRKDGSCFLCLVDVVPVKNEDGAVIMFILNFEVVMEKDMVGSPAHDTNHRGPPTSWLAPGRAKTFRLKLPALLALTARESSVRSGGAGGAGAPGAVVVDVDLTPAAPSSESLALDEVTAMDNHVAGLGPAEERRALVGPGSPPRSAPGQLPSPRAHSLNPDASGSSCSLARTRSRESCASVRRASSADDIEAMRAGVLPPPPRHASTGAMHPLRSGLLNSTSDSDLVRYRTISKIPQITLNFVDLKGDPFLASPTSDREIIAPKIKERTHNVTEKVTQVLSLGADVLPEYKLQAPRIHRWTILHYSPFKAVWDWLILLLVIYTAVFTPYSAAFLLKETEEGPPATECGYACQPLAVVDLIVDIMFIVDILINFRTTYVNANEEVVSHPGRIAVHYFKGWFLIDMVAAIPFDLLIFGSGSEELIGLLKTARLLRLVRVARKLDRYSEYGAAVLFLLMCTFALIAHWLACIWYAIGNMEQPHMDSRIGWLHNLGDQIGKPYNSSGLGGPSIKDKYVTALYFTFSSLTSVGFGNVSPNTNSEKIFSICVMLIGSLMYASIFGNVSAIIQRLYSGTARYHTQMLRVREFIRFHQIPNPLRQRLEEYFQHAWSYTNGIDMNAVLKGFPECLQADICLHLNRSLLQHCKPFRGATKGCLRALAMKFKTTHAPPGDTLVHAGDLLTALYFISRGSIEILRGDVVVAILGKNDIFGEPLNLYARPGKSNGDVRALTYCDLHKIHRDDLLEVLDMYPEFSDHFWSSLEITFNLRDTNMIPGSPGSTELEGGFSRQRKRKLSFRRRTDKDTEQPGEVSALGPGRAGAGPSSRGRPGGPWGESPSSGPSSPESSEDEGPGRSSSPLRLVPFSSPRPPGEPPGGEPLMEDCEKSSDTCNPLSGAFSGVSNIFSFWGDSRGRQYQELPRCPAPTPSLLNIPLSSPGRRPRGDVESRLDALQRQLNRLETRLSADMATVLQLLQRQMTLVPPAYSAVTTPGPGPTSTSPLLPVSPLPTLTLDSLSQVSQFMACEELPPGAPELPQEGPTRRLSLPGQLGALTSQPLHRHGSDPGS

Candida albicans [38] = assay: Inhibition of biofilm formation of Candida albicans SC5314 at 16 ug/ml incubated for 24 hrs by XTT assay relative to control; format: functional
Candida albicans [39] = assay: Synergistic antifungal activity against FLC-resistant Candida albicans 710506 assessed as fungal growth inhibition incubated for 48 hrs in presence of FLC by broth microdilution method; format: functional
Candida albicans [40] = assay: Synergistic antifungal activity against FLC-resistant Candida albicans 953 assessed as fungal growth inhibition incubated for 48 hrs in presence of FLC by broth microdilution method; format: functional
Candida albicans [41] = assay: Antifungal activity against Candida albicans SC5314 infected in C57BL/6 mouse assessed as mean fungal burden at 0.25 mg/kg, ip measured after 46 hrs by plate count method (reference value: 6.902 log10CFU/ml); format: functional

Structure (SMILES): CCN(CC)c1ccc(C(NC(=O)C(C)C)c2ccc3cccnc3c2O)cc1 (stereo unspecified)
- MIC (Candida albicans [1]): 0.5 µg/mL
- MIC (Candida albicans [2]): 2 µg/mL
- fractional inhibitory concentration index (FICI) (Candida albicans [3]): 0.039
- bioavailability [4]: 5.7%
- Vd [5]: 4.75 L/kg
- fractional inhibitory concentration index (FICI) (Candida albicans [6]): 0.126
- MIC (Candida albicans [7]): 0.016 µg/mL
- MIC (Candida albicans [8]): 8 ng/mL
- MRT last [9]: 2.05 h
- MIC (Candida albicans [10]): 0.5 µg/mL
- MIC (Candida albicans [11]): 0.25 µg/mL
- MIC (Candida albicans [12]): 1 µg/mL
- fractional inhibitory concentration index (FICI) (Candida albicans [13]): 0.133
- inhibition (Candida albicans [14]): Active
- fractional inhibitory concentration index (FICI) (Candida albicans [15]): 0.312
- MIC (Candida albicans [16]): 2 µg/mL
- MIC (Candida albicans [17]): 1 µg/mL
- fractional inhibitory concentration index (FICI) (Candida albicans [18]): 0.064
- fractional inhibitory concentration index (FICI) (Candida albicans [19]): 0.066
- inhibition (Candida albicans [20]): Active
- MIC (Candida albicans [21]): 0.016 µg/mL
- half-life [22]: 317 min
- MIC (Candida albicans [23]): 0.25 µg/mL
- half-life [24]: 60 min
- MIC (Candida albicans [25]): 0.25 µg/mL
- MIC (Candida albicans [26]): 0.125 µg/mL
- MIC (Candida albicans [27]): 0.016 µg/mL
- MIC (Candida albicans [28]): 1 µg/mL
- fractional inhibitory concentration index (FICI) (Candida albicans [29]): 0.078
- MIC (Candida albicans [30]): 8 ng/mL
- fractional inhibitory concentration index (FICI) (Candida albicans [31]): 0.047
- MIC (Candida albicans [32]): 0.016 µg/mL
- MIC (Candida albicans [33]): 0.25 µg/mL
- fractional inhibitory concentration index (FICI) (Candida albicans [34]): 0.039
- fractional inhibitory concentration index (FICI) (Candida albicans [35]): 0.127
- MIC (Candida albicans [36]): 0.25 µg/mL
- INH [37]: > 50 µM
- inhibition at 16 µg/mL (Candida albicans [38]): 29.8%
- MIC (Candida albicans [39]): 0.031 µg/mL
- MIC (Candida albicans [40]): 0.016 µg/mL

Structure (SMILES): OC(Cn1cncn1)(Cn1cncn1)c1ccc(F)cc1F [FLUCONAZOLE]
- Activity (Candida albicans [41]): 5.66 log10CFU/ml
